Results on 13 compounds are retold here after ChEMBL document CHEMBL1201862, “PubChem BioAssay data set” (2004).

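Grown in 96-well plates, cells were treated for 48 hours with each compound at five concentrations. Insufficient inhibition: endpoint recorded as highest concentration tested. The concentration for 50% growth inhibition is given as GI50.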 Activity calls are given as the source filed them. No stated cut-off is given here; in the data, active = GI50 up to about 1.1 µM and inactive = higher.

Assay in all cases: NCI tumour cell line growth inhibition, 48 h
Experiment [1] has as its system CAKI-1.
The subject of experiment [2] is SK-MEL-5.
Experiment [3] concerns HCT-116.
For experiment [4], the system named is A549.
For experiment [5], the system named is Malme-3M.
Experiment [6] has as its system SF-268.
Experiment [7] has as its system SF-295.
Experiment [8] concerns HCT-15.
In experiment [9] the test system is EKVX.
In experiment [10] the test system is SNB-75.
Experiment [11] concerns COLO 205.
Experiment [12] relates to SW-620.
Experiment [13] concerns MOLT-4.
In experiment [14] the test system is SK-MEL-28.
Experiment [15] deals with OVCAR-3.
In experiment [16] the test system is SNB-19.

As for `CCCCCCCSCC1C(=O)C23C(O)C1CCC2C12COC3(O)C(O)C1C(C)(C)CCC2O` (stereo not drawn), the GI50 was 4.83 µM (inactive) in experiment [1]; 12.1 µM (inactive) in [2]; 5.5 µM (inactive) in experiment [3]; 18.7 µM (inactive) in experiment [4]; 14.1 µM (inactive) in experiment [5]; 10.8 µM (inactive) in experiment [6]. Besides, the GI50 in experiment [7] was 17.9 µM (inactive); in [8], 9.02 µM; in experiment [9] it was 17.7 µM (inactive); in [10] it was 21.2 µM (inactive); in experiment [11] it was 4.16 µM (inactive); in experiment [12] it was 0.881 µM (active). For the same compound, the GI50 in experiment [13] was 3.3 µM (inactive); in experiment [14] it was 9.51 µM (inactive); in experiment [15], 16.7 µM (inactive); in experiment [16], 18.9 µM (inactive).

With `C/C(=N/NC(=O)C(N)=O)C(CC(C(=O)Nc1ccccc1C)/C(C)=N\NC(=O)C(N)=O)C(=O)Nc1ccccc1C` (stereo not drawn), the GI50 in experiment [1], in experiment [2], in experiment [4], in experiment [5], in [6] and in experiment [7] was > 100 µM (inactive) in each case. The GI50 in experiment [9] was > 100 µM (inactive); in experiment [10] it was > 100 µM (inactive); in [11] it was > 100 µM (inactive); in [12] it was > 100 µM (inactive); in [13], 75.9 µM (inactive); in experiment [14] it was > 100 µM (inactive). Besides, the GI50 in experiment [15] and in experiment [16] was > 100 µM (inactive) each time.

`CCCC/C=C1\CCC(C)(CN(C)C)C1=O` (stereo not drawn): the GI50 in experiment [1], in experiment [2], in experiment [3], in experiment [4], in experiment [5] and in [6] was > 100 µM (inactive) in each case. The GI50 in experiment [7] was > 100 µM (inactive); in experiment [8], over 100 µM; in experiment [9] it was > 100 µM (inactive); in [12], > 100 µM (inactive); in [13] it was > 100 µM (inactive); in experiment [14], > 100 µM (inactive). Besides, the GI50 in experiment [15] is > 100 µM (inactive).

On to `C=CCCCCCCCCCCCC1CCC(CC)N1` (stereo not drawn), for which the GI50 is 11.2 µM (inactive) in [1]; 10.2 µM (inactive) in experiment [2]; 6.04 µM (inactive) in [3]; 10.3 µM (inactive) in [4]; 16.3 µM (inactive) in experiment [5]; 20.6 µM (inactive) in [6]. Also, the GI50 in experiment [7] is 13.8 µM (inactive); in experiment [8] it was 3.4 µM; in [9], 15.5 µM (inactive); in [10], 14.4 µM (inactive); in [11] it was 3.37 µM (inactive); in experiment [12], 11.4 µM (inactive). Also, the GI50 in experiment [13] is 4.06 µM (inactive); in experiment [14], 15.7 µM (inactive); in [15], 9.44 µM (inactive); in experiment [16], 15.5 µM (inactive).

`Cc1cc(C)c(C(=O)/C(=C/c2ccccc2)c2ccccc2)c(C)c1`: the GI50 in experiment [1] is 36.8 µM (inactive); in experiment [2], > 100 µM (inactive); in experiment [3], 34.8 µM (inactive); in [4], 38.8 µM (inactive); in [5] it was 18.2 µM (inactive); in experiment [6], 76.2 µM (inactive). Besides, the GI50 in experiment [7] was 51.6 µM (inactive); in experiment [8], 20.6 µM; in experiment [9] it was 72.8 µM (inactive); in [10], 82.2 µM (inactive); in experiment [11] it was 91.6 µM (inactive); in experiment [12], 60 µM (inactive). In addition, the GI50 was 29 µM (inactive) in [13], > 100 µM (inactive) in experiment [14], 51.4 µM (inactive) in experiment [15] and > 100 µM (inactive) in experiment [16].

`Cc1cc(/C=C/c2cc[n+](C)c3ccccc23)c(O)c2ncccc12`: the GI50 in [1] is 10.1 µM (inactive); in [2] it was 1.02 µM (active); in experiment [3], 0.966 µM (active); in experiment [4], 2.07 µM (inactive); in experiment [5] it was 2.8 µM (inactive); in experiment [6] it was 0.973 µM (active). Moreover, the GI50 in experiment [7] is 0.991 µM (active); in experiment [8], 4.65 µM; in experiment [9] it was 3.28 µM (inactive); in experiment [10], 5.16 µM (inactive); in experiment [11], 5.68 µM (inactive); in experiment [12], 0.619 µM (active). The GI50 is 0.646 µM (active) in experiment [13], 2.16 µM (inactive) in [14], 0.288 µM (active) in [15] and 4.55 µM (inactive) in experiment [16].

For `CCSC1=CC(Cc2ccc(OC)cc2)N(C(=O)OC)C1` (stereo not drawn), the GI50 was 86.5 µM (inactive) in experiment [1]; 49.4 µM (inactive) in experiment [2]; 52.2 µM (inactive) in [3]; > 100 µM (inactive) in [4]; > 100 µM (inactive) in [5]; > 100 µM (inactive) in experiment [6]. Also, the GI50 in experiment [7] was > 100 µM (inactive); in experiment [8], 40.7 µM; in [9], > 100 µM (inactive); in experiment [10], > 100 µM (inactive); in experiment [11], 81.5 µM (inactive); in [12] it was 25.2 µM (inactive). The GI50 in experiment [13] was > 100 µM (inactive); in experiment [14], > 100 µM (inactive); in [15], 51.4 µM (inactive); in experiment [16], > 100 µM (inactive).

For the compound `Cc1nc(C)c(C(=O)Nc2cccc3c2C(=O)NC3=O)cc1C(=O)Nc1cccc2c1C(=O)NC2=O`, the GI50 in experiment [1], in experiment [2], in experiment [3], in [4], in experiment [5] and in [6] was > 100 µM (inactive) each time. Also, the GI50 in [7] is > 100 µM (inactive); in experiment [8], over 100 µM; in experiment [9] it was > 100 µM (inactive); in experiment [10], > 100 µM (inactive); in [11], > 100 µM (inactive); in experiment [12], > 100 µM (inactive). Further, the GI50 in experiment [13], in experiment [14], in experiment [15] and in experiment [16] was > 100 µM (inactive) throughout.

In the case of `COc1ccc2c(c1)CC[C@@H]1C2CC[C@]2(C)C(=O)NC(=O)CC12` (stereo partly drawn), the GI50 in experiment [1] is > 100 µM (inactive); in experiment [2], 78.3 µM (inactive); in experiment [3], > 100 µM (inactive); in [4] it was > 100 µM (inactive); in experiment [5], > 100 µM (inactive); in experiment [6], > 100 µM (inactive). For the same compound, the GI50 was > 100 µM (inactive) in experiment [7]; over 100 µM in experiment [8]; 84.1 µM (inactive) in [9]; > 100 µM (inactive) in experiment [11]; > 100 µM (inactive) in experiment [12]; 61.8 µM (inactive) in experiment [13]. The GI50 in [15] and in [16] was > 100 µM (inactive) each time.

With `COC(=O)N/N=C(\C)c1c(O)cc(C)oc1=O`, the GI50 is 50.8 µM (inactive) in [2]; 98.4 µM (inactive) in [3]; 29 µM (inactive) in experiment [4]; > 100 µM (inactive) in [5]; 22.1 µM (inactive) in experiment [6]; 29.4 µM (inactive) in [7]. In addition, the GI50 in [8] is 17 µM; in [9], > 100 µM (inactive); in experiment [10], > 100 µM (inactive); in experiment [12] it was 25.9 µM (inactive); in [13], 18.5 µM (inactive); in experiment [14], 50.8 µM (inactive). Moreover, the GI50 in experiment [16] is > 100 µM (inactive).

As to `CCOc1ccc(/N=C/c2c3ccccc3nc3ccccc23)cc1`, the GI50 in experiment [1] is 58.2 µM (inactive); in experiment [2], 38.9 µM (inactive); in experiment [4] it was 74.6 µM (inactive); in experiment [5] it was 49.5 µM (inactive); in experiment [6], 71 µM (inactive); in [7], 59.6 µM (inactive). The GI50 in experiment [8] is 25.1 µM; in experiment [9] it was 95.3 µM (inactive); in experiment [10], 44.8 µM (inactive); in experiment [11], > 100 µM (inactive); in [12] it was 31.3 µM (inactive); in experiment [13] it was 4.25 µM (inactive). Also, the GI50 in experiment [14] was > 100 µM (inactive); in experiment [15], 31.1 µM (inactive); in [16], 73.8 µM (inactive).

As to `O=C1C2C3C=C4c5ccccc5N(c5ccccc5)C4(C2C(=O)N1c1ccc(Br)cc1)[C@H]1C(=O)N(c2ccc(Br)cc2)C(=O)[C@@H]31` (stereo partly drawn), the GI50 in experiment [1] is 18.8 µM (inactive); in experiment [2], > 100 µM (inactive); in [3] it was > 100 µM (inactive); in experiment [4], > 100 µM (inactive); in [5], > 100 µM (inactive); in experiment [7], > 100 µM (inactive). For the same compound, the GI50 in experiment [8] is over 100 µM; in experiment [9], > 100 µM (inactive); in experiment [10], > 100 µM (inactive); in experiment [11] it was 31.6 µM (inactive); in experiment [12] it was > 100 µM (inactive); in experiment [13] it was 8.89 µM (inactive). Further, the GI50 in experiment [15] and in experiment [16] was > 100 µM (inactive) each time.

Turning to `COC(=O)[C@@]12OC[C@]34C([C@@H](O)C1O)[C@@]1(C)CC(=O)C(OC(=O)/C=C(/c5ccccc5)C(F)(F)F)=C(C)C1C[C@H]3OC(=O)[C@H](O)[C@H]42` (stereo partly drawn), the GI50 is 20.1 µM (inactive) in experiment [1]; 4.83 µM (inactive) in [2]; 8.63 µM (inactive) in experiment [3]; 16.5 µM (inactive) in experiment [4]; 7.91 µM (inactive) in experiment [5]; 11.2 µM (inactive) in [6]. For the same compound, the GI50 in experiment [7] is 7.93 µM (inactive); in [8], 23.8 µM; in experiment [9] it was 38.6 µM (inactive); in experiment [10], 4.01 µM (inactive); in [11] it was 11.2 µM (inactive); in experiment [13] it was 2.14 µM (inactive). The GI50 in [14] is 5.31 µM (inactive); in experiment [16], 4.71 µM (inactive).
